{"source": "patent US11318154B2", "about": "(priority 2019, dated 2022)", "key": {"[1]": {"tested_on": "TcdB-induced disruption in colon epithelium", "assay": "Mice colon ligation loop model with TcdB injection, H&E histological scoring", "format": "in vivo, C57BL/6 mice", "conditions": "intraperitoneal pre-treatment daily for two days, 10 μg TcdB in loop, 8 h", "method": "The inventors used a mice colon ligation loop model to mimic C. difficile infection as TcdB is released into the lumen of the colon during C. difficile infection. All procedures were performed according to the animal protocol approved by the Cornell University IACUC (2017-0112). 6-8 weeks old of C57BL/6 mice were administrated with glycyrrhizin acid (50 mg/kg) daily via intraperitoneal injection two days before surgery. After overnight fasting, mice were anaesthetized and dissected via a midline laparotomy. A length of about 2 cm colon tissue was ligated and either saline or TcdB was injected into ligated loop for treatment. Mice were sutured and allowed to recover. After 8 hours, mice were euthanized and the ligated colon segments were excised and subjected to H&E staining. HE scoring was blindly assessed by a pathologist."}, "C. difficile VPI 10463": {"tested_on": "C. difficile VPI 10463", "assay": "C. difficile mice model (spore challenge), survival", "format": "in vivo", "conditions": "C57BL/6 mice, 1×10^5 C. difficile VPI10463 spores by gavage, daily injection", "method": "To further determine the in vivo protective effect of glycyrrhizin on mice, a C. difficile mice model was established particularly the one as described in Guo, S. et al, (2015), Vaccine 33, 1586-1595. Briefly, C57BL/6 mice were given water mixed with a mixture of kanamycin (Sigma, MO) (0.4×10^−3 mg/L), gentamicin (Sigma, MO) (0.035×10^−3 mg/L), colistin (Sigma, MO) (850 U/mL), metronidazole (Sigma, MO) (0.215×10^−3 mg/L), and vancomycin (Sigma, MO) (0.045×10^−3 mg/L) for 3 days. All mice were then provided with regular autoclaved water for 2 days and administered with a single dose of clindamycin (Sigma, MO) (10 mg/kg) intraperitoneally 1 day before the C. difficile challenge. Mice were injected with glycyrrhizin daily on or before the day of C. difficile VPI 10463 spores challenge. All mice were then challenged with 1×10^5 of prepared C. difficile (strain VPI10463) spores by gavage feeding. The mice were intensively monitored daily after challenge for the presence and severity of diarrhea and other symptoms of illness or mortality. Body weight was measured once a day at the same time each day. Mice judged to be in a moribund state were euthanized by carbon dioxide."}}}
{"smiles": "CC1(C)[C@@H](O[C@H]2O[C@H](C(=O)O)[C@@H](O)[C@H](O)[C@H]2O[C@@H]2O[C@H](C(=O)O)[C@@H](O)[C@H](O)[C@H]2O)CC[C@]2(C)[C@H]3C(=O)C=C4[C@@H]5C[C@@](C)(C(=O)O)CC[C@]5(C)CC[C@@]4(C)[C@]3(C)CC[C@@H]12", "note": "[glycyrrhizin]", "values": [{"measurement": "epithelial layer damage of ligated colon tissue (histology)", "setting": "[1]", "value": "less epithelial layer damages"}, {"measurement": "survival at the end of experiment", "setting": "C. difficile VPI 10463", "value": 100, "unit": "%"}]}
